Experiment [1] concerns ZDF rats. Nature of the experiment: RP-HPLC analysis of CML in kidney and heart of ZDF rats. In kind it is in vivo, rat. The settings on record: for mean CML conc.: RP-HPLC, ZDF Placebo = 100. The method, then:
Kidney AGE values were determined by Dot blot analysis (Stracke et al., Exp. Clin. Endocrinol. Diabets 2002, 109, 330-336) and Reversed-phase high performance liquid chromatography or RP-HPLC (Drusch et al., Food Chem. 1999, 65, 547-553).
[…] Two animals of each group were analyzed. Grinding of the kidney and heart was performed in liquid nitrogen using a freezer mill (Freezer 6750, C3 Analysetechnik GmbH). Hydrolysis of the organ samples was performed with 6 M hydrochloric acid (HCl) at 110° C. for 12 hours. Sample treatment with o-phthaldialdehyde (OPA) and RP-HPLC was performed as described in Drusch et al., Food Chem. 1999, 65, 547-553.

For experiment [2], the system named is endothelial cells. Nature of the experiment: NO and superoxide release from endothelial cells in rabbits fed an atherogenic diet. In kind it is in vivo, White New Zealand rabbits. To be noted: varied diet rabbits; mean ± SEM. From the text: It was shown in the atherogenic rabbit model (White New Zealand rabbits were fed with 0.25% cholesterol plus 3% coconut oil) that even a short 6 week period of an atherogenic diet leads to sustained endothelial dysfunction, even though the animals received a normal diet for 3 months thereafter.
The endothelium-dependent relaxation of isolated aortic rings of rabbits as well as the release of nitric oxide and superoxide from endothelial cells serve as measures of endothelial dysfunction.
• Groups: • Standard: 18 weeks normal diet • Atherogenic: 18 weeks atherogenic diet (3% Coconut oil+0.25% Cholesterol) • Varied diet (Var.): 6 weeks atherogenic diet+12 weeks normal diet • Varied Diet+ramipril: 6 weeks atherogenic diet+12 weeks normal diet+ramipril • Varied diet+compound (II-B): 6 weeks atherogenic diet+12 weeks normal diet+cpd. (II-B)
NO and O2^− are markers for endothelial function: increased relaxation and increased NO levels are beneficial, while increased O2^− formation inhibits the beneficial effects of NO.

The subject of experiment [3] is isolated aortic rings of rabbits. Briefly: Relaxation of aortic rings by acetylcholine in rabbits fed an atherogenic diet. In kind it is in vivo, White New Zealand rabbits. To be noted: for Relaxation of aortic rings by acetylcholine: varied diet rabbits, mean ± SEM. From the text:
It was shown in the atherogenic rabbit model (White New Zealand rabbits were fed with 0.25% cholesterol plus 3% coconut oil) that even a short 6 week period of an atherogenic diet leads to sustained endothelial dysfunction, even though the animals received a normal diet for 3 months thereafter. […] The endothelium-dependent relaxation of isolated aortic rings of rabbits as well as the release of nitric oxide and superoxide from endothelial cells serve as measures of endothelial dysfunction. […] (II-B) [table]

Experiment [4] deals with Zucker Diabetic Fatty (ZDF) Rats (ZDF Gmi fa/fa). Nature of the experiment: Urinary excretion of albumin and creatinine in ZDF rats treated from 10 to 37 weeks of age. In kind it is in vivo, rat. To be noted: for Urine excretion Albumin / Urine excretion Albumin/Creatinine: ZDF rats, mean. The method, then:
The protein and creatinine excretion in the urine of male Zucker Diabetic Fatty (ZDF) Rats (ZDF Gmi fa/fa) and heterozygous control animals (ZDF Gmi −/+) of 10, 17, 27 and 37 weeks age was determined. In further groups, diabetic rats were chronically given either ramipril (1 mg/kg/day, in drinking water) or a compound of formula (II-B) (30 mg/kg/day, in food) over a period from 10 to 37 weeks. The animals were sacrificied after 37 weeks, and their kidneys examined histologically.

Regarding `CC(=O)S[C@H](C(=O)N[C@H]1Cc2ccccc2[C@H]2CCC[C@@H](C(=O)O)N2C1=O)C(C)C` [cpd. (II-B)], the results for the “mean CML conc.” value in experiment [1] (hearts of 17-week-old ZDF rats), in experiment [1] (kidneys of 17-week-old ZDF rats) and in experiment [1] (kidneys of 37-week-old ZDF rats) were 26%, 55% and 58%, respectively. Besides, the “CML concentration in the heart of 17-week-old ZDF rats” value in experiment [1] (in words) was “reduces”. Besides, the “CML concentration in the kidneys of 17-week-old ZDF rats” value in experiment [1] (in words) is recorded as “reduces”. In addition, the “CML concentration in the kidneys of 37-week-old ZDF rats” value in experiment [1] (in words) is reported as “reduces”. The same molecule yielded an NO in experiment [2] of 329.19 ± 30.10 nM. The “O2^− (superoxide)” value in experiment [2] amounted to 30.18 ± 6.00 nM. In addition, the “Relaxation of aortic rings by acetylcholine” value is 80.89 ± 6.82% in experiment [3] (ACh 10^−5 mol/L after phenylephrine 10^−7 mol/L), 76.4 ± 6.38% in experiment [3] (ACh 10^−6 mol/L after phenylephrine 10^−7 mol/L), 59.62 ± 6.43% in experiment [3] (ACh 10^−7 mol/L after phenylephrine 10^−7 mol/L) and 19.9 ± 3.48% in experiment [3] (ACh 10^−8 mol/L after phenylephrine 10^−7 mol/L). Besides, the “Endothelial dysfunction and atherogenic changes in the blood vessels” value in experiment [3] (atherogenic rabbit model, in words) is “both prevented and reversed”. In addition, the “Urine excretion Albumin” value came out at 0.27 mg/kg/h in experiment [4] (week 0 of treatment), 0.09 mg/kg/h in experiment [4] (week 7 of treatment), 0.41 mg/kg/h in experiment [4] (week 17 of treatment) and 1.39 mg/kg/h in experiment [4] (week 27 of treatment). The “Urine excretion Albumin/Creatinine” value in experiment [4] (week 0 of treatment) is 48.56 mg/mmol; in experiment [4] (week 7 of treatment), 14.30 mg/mmol; in experiment [4] (week 17 of treatment), 44.63 mg/mmol; in experiment [4] (week 27 of treatment), 152.71 mg/mmol. In experiment [4] (nephroprotective effect, compared with ramipril), the “Effect relative to the ACE inhibitor ramipril” value is 6-8 fold.

(Values after US6930103B2, “Use of vasopeptidase inhibitors in the treatment of metabolic diseases, nephropathy and advanced glycation end-product associated diseases” (Aventis Pharma Deutschland GmbH, priority 2002, dated 2005).)
